Laboratory results: PMC11475408, “All‐Inorganic Polyoxometalates Act as Superchaotropic Membrane Carriers” (Advanced Materials (Deerfield Beach, Fla.), 2023)

Legend:
[1] = CF transport assay in anionic vesicles; type: biochemical; conditions: heptaArg cargo; for heptaArg Ymax, anionic vesicles / EC50: CF assay, pH 7.4; for heptaArg Ymax, anionic vesicles: DMPE/DPPG/CHOL 1/2/1 (anionic), 13 µM phospholipids, 10 mM Tris, 140 mM NaCl; for EC50 / heptaArg E, anionic vesicles: DMPE/DPPG/CHOL (anionic); for heptaArg E, anionic vesicles: f = 20.6
Description: To better mimic biological membranes, which contain negatively charged components and cholesterol, equivalent transport experiments were performed in anionic liposomes^[ [19], [20] ^] with the prototypal POM carriers, [PVW11]^4‒ and [SiMoW11]^4‒ . […] This encouraged us to transfer the experiments to CHO‐K1 (Chinese hamster ovary) cells, after we had confirmed sufficient stability of the most promising POM carriers, [PVW11]^4‒ and [SiMoW11]^4‒ , in the cellular nutrient mixture (F‐12 Ham's medium, Figures S26–S28C, Supporting Information).
Anionic vesicles were prepared analogously except for the lipid composition, DMPE/DPPG/CHOL (4.4/10.4/2.6 mg, 1/2/1 molar ratio, DMPE: 1,2‐dimyristoyl‐sn‐glycero‐3‐phosphoethanolamine; DPPG: 1,2‐dipalmitoyl‐sn‐glycero‐3‐phospho‐(1´‐rac‐glycerol); CHOL: cholesterol) in a 1:1 mixture of CHCl3 and MeOH (1 mL), the hydration (60 min) and extrusion were performed at 55 °C, and the employed buffers were 100 mM CF, 10 mM Tris, pH 7.4 and 10 mM Tris, 140 mM NaCl, pH 7.4 for rehydration and elution, respectively.
Vesicles stock solutions (5–10 µL) were diluted with the corresponding buffer in a disposable plastic cuvette and gently stirred (total volume 2000 µL, final lipid concentration 13 µM). Carboxyfluorescein fluorescence was monitored at λ em = 517 nm (λ ex = 492 nm) as a function of time after addition of POMs at 60 s, analyte at 120 s and Triton X‐100 (24 µL 1.2% wt/vol) at 600 s to lyse the vesicles, for calibration. Fluorescence intensities were normalized to fractional emission as (1) It=It−I0/I∞−I0 where I 0 = I t before POM addition and […] after lysis. For Hill analysis, I t before lysis was defined as transport activity, Y, and plotted against POM concentration, c, and fitted to the Hill Equation (2), to afford the activity in absence of POM, Y 0, the maximal activity, Y max, the concentration needed to achieve 50% of maximal activity, EC 50, and the Hill coefficient, n (2) Y=Y0+Ymax−Y0/1+EC50/c^n […]
Figure S8. Heptaarginine transport through anionic vesicles[22-23][24] (DMPE/DPPG/CHOL, 1/2/1 molar ratio) facilitated by [PVW11]4‒ (a) and [SiMoW11]4‒ (c). Transport activity as function of [PVW11]4‒ (b) and [SiMoW11]4‒ (d) concentration, solid lines correspond to the resulting fit with the Hill equation.
Table S5. Membrane transport parameters of active POMs towards different analytes and different lipid composition. […]
a) 13 µM phospholipids. b) 10 µM cargo. c) Maximal activity; ±2% error (SD). d) Effective concentration to reach 50% activity of Ymax; 5 % error (SD). e) Activation efficiency E = Ymax (pEC50/f), were pEC50 is the negative logarithm of the EC50, and f a scaling factor set to 20.6 to allocate E between 0

[2] = tested on: CHO‐K1 cells; assay: Cellular viability, resazurin assay; type: cell-based, Chinese hamster; conditions: CHO-K1, up to 10 µM carrier, 24 h, n = 3
Description: For cell viability assay in thepresence of activators, CHO‐K1 cells were incubated in Ham's F‐12 medium containing 10% fetal bovine serum and 1.0% penicillin streptomycin at 37 °C in a 5% CO2 for 24 h. CHO‐K1 cells were dispersed in a 96‐well flat bottom tissue culture treated plates (Eppendorf) at density of 5 × 10^3 cells per well (per 100 µL) and incubated in Ham's F‐12 containing 10% v/v fetal bovine serum at 37 °C in a 5% CO2 incubator for 12 h to allow cell adhesion. Then, cells were incubated with POM, B12Br12 ^2−, or PyBu (10, 50, and 100 µM) for another 24 h. After this incubation time, 20 µL resazurin solution (0.15 mg mL^−1) was added to cells and incubated for another 3 h. Finally, the plates were read at λ em = 590 nm (λ ex = 560 nm) using a JASCO fluorometer FP‐8500. The cell viability was evaluated by the following equation (4) Cellviability=FIsample−FIblank/FIcontrol−FIblank×100% where, FI sample is the fluorescence intensity of cells incubated with different compounds, FI blank is the fluorescence intensity of medium, and FI control is the fluorescence intensity of cells in absence of any compound.
6. Transport in cellular membranes
Figure S13. Viability of CHO-K1cells (resazurin assay) incubated with different carrier concentrations (0, 10, 50, and 100 µM) for 24 hours. Error bars refer to standard deviation (n = 3).
Figure S14. […]

| Substance | heptaArg Ymax, anionic vesicles [1] [%] | EC50 [1] [µM] | heptaArg E, anionic vesicles [1] | Cell viability [2] |
| --- | --- | --- | --- | --- |
| K4[α‐P^VV^VW^VI 11O40]·4H2O [[PVW11]^4‒] | 45 | 50 | 2.8 | about 80% |
| K4[α‐Si^IVMo^VIW^VI 11O40]·24H2O [[SiMoW11]^4‒] | 61 | 60 | 3.6 | about 80% |
